Values quoted from earlier work, collected in article PMC5641599 (Molecular Metabolism, 2017).
Like-named read-outs stand apart in the source and are kept apart here.

Tested on: MC4R variants
Conditions: cited from earlier work

NDP-MSH
Binding Bmax (% of WT) (MC4R I301T, ref Vaisse C, J Clin Invest, 2000): 20.0 % of WT | Binding Bmax (% of WT) (MC4R I301T, ref Xiang Z, Biochemistry, 2006): 35.6 % of WT | Binding Bmax (% of WT) (MC4R I316S, ref Xiang Z, Biochemistry, 2006): 55.6 % of WT | Binding Bmax (% of WT) (MC4R I316S, ref Yeo GS, Hum Mol Genet, 2003): 28.0 % of WT | Binding Bmax (% of WT) (MC4R I317T, ref Nijenhuis WA, J Biol Chem, 2003): 42.0 % of WT | Binding Bmax (% of WT) (MC4R I317T, ref VanLeeuwen, J Biol Chem, 2003): 66.7 % of WT | Binding Bmax (% of WT) (MC4R I317T, ref Xiang Z, Biochemistry, 2006): 20.0 % of WT | Binding Bmax (% of WT) (MC4R I317V, ref Fan ZC, J Cell Mol Med, 2009): 94.0 % of WT | Binding Bmax (% of WT) (MC4R I317V, ref Xiang Z, Biochemistry, 2010): 91.9 % of WT | Binding Bmax (% of WT) (MC4R L54P, ref Tan K, Endocrinology, 2009): 32.5 % of WT | Binding Bmax (% of WT) (MC4R L106P, ref Xiang Z, Biochemistry, 2006): 2.2 % of WT | Binding Bmax (% of WT) (MC4R L106P, ref Yeo GS, Hum Mol Genet, 2003): 18.7 % of WT | Binding Bmax (% of WT) (MC4R L304F, ref van der Berg L, Obesity, 2011): 40.0 % of WT | Binding Bmax (% of WT) (MC4R L325F, ref Fan ZC, J Cell Mol Med, 2009): 92.0 % of WT | Binding Bmax (% of WT) (MC4R L325F, ref Larsen LH, J Clin Endocrinol Metab, 2005): 0.0 % of WT | Binding Bmax (% of WT) (MC4R L325F, ref Xiang Z, Biochemistry, 2010): 70.3 % of WT | Binding Bmax (% of WT) (MC4R N62S, HEK293 cell line, ref Huang H, Int J Biol Sci, 2014): 25.0 % of WT | Binding Bmax (% of WT) (MC4R N62S, ref Tao YX, Endocrinology, 2003): 5.0 % of WT | Binding Bmax (% of WT) (MC4R N62S, ref Xiang Z, Biochemistry, 2006): 1.4 % of WT | Binding Bmax (% of WT) (MC4R N62S, ref Yeo GS, Hum Mol Genet, 2003): 20.0 % of WT | Binding Bmax (% of WT) (MC4R N97D, ref Xiang Z, Biochemistry, 2006): 8.9 % of WT | Binding Bmax (% of WT) (MC4R N97D, ref Yeo GS, Hum Mol Genet, 2003): 10.5 % of WT | Binding Bmax (% of WT) (MC4R N274S, ref Tao YX, Endocrinology, 2003): 144.0 % of WT | Binding Bmax (% of WT) (MC4R N274S, ref Xiang Z, Biochemistry, 2006): 66.7 % of WT | Binding Bmax (% of WT) (MC4R P48S, ref Tao YX, Endocrinology, 2003): 79.0 % of WT | Binding Bmax (% of WT) (MC4R P48S, ref Xiang Z, Biochemistry, 2010): 48.6 % of WT | Binding Bmax (% of WT) (MC4R P78L, HEK293 cell line, ref Huang H, Int J Biol Sci, 2014): 0.0 % of WT | Binding Bmax (% of WT) (MC4R P78L, ref Nijenhuis WA, J Biol Chem, 2003): 0.9 % of WT | Binding Bmax (% of WT) (MC4R P78L, ref Tao YX, Endocrinology, 2003): 0.0 % of WT | Binding Bmax (% of WT) (MC4R P78L, ref Xiang Z, Biochemistry, 2006): 0.556 % of WT | Binding Bmax (% of WT) (MC4R P299H, ref Roubert P, J Endocrinol, 2010): 0.0 % of WT | Binding Bmax (% of WT) (MC4R P299H, ref Xiang Z, Biochemistry, 2006): 1.2 % of WT | Binding Bmax (% of WT) (MC4R P299L, ref Xiang Z, Biochemistry, 2010): 2.4 % of WT | Binding Bmax (% of WT) (MC4R R305W, ref Roubert P, J Endocrinol, 2010): 193.9 % of WT | Binding Bmax (% of WT) (MC4R S58C, ref Roubert P, J Endocrinol, 2010): 27.6 % of WT | Binding Bmax (% of WT) (MC4R S58C, ref Tao YX, Endocrinology, 2003): 14.0 % of WT | Binding Bmax (% of WT) (MC4R S58C, ref Xiang Z, Biochemistry, 2006): 22.2 % of WT | Binding Bmax (% of WT) (MC4R S94R, ref Xiang Z, Biochemistry, 2010): 0.135 % of WT | Binding Bmax (% of WT) (MC4R S295P, ref Tao YX, J Clin Endocrinol Metab, 2005): 129.0 % of WT | Binding Bmax (% of WT) (MC4R S295P, ref Xiang Z, Biochemistry, 2010): 162.2 % of WT | Binding Bmax (% of WT) (MC4R T112M, ref Nijenhuis WA, J Biol Chem, 2003): 100.0 % of WT | Binding Bmax (% of WT) (MC4R T112M, ref Tao YX, J Clin Endocrinol Metab, 2005): 130.0 % of WT | Binding Bmax (% of WT) (MC4R V50M, ref Roubert P, J Endocrinol, 2010): 69.4 % of WT | Binding Bmax (% of WT) (MC4R V50M, ref Tao YX, Endocrinology, 2003): 74.0 % of WT | Binding Bmax (% of WT) (MC4R V50M, ref Xiang Z, Biochemistry, 2010): 59.5 % of WT | Binding Bmax (% of WT) (MC4R V95I, ref Xiang Z, Biochemistry, 2006): 0.7 % of WT | Binding Bmax (% of WT) (MC4R V103I, ref Ho G, J Biol Chem, 1999): 123.3 % of WT | Binding Bmax (% of WT) (MC4R V103I, ref Xiang Z, Biochemistry, 2006): 100.0 % of WT | Binding Bmax (% of WT) (MC4R Y302F, ref Roth CL, Endocrine, 2009): 80.0 % of WT | Binding Bmax (% of WT) (MC4R Y332H, ref Santoro N, BMC Med Genet, 2009): 100.0 % of WT
